Some results are limits rather than exact numbers.

In the first experiment the target is T1, Recombinant human liver GK1 (GST-GK) (Homo sapiens, UniProt P35557).
T1 construct: made in house; host or cells: E. coli
T1 sequence (P35557 1-466 isoform P35557-2): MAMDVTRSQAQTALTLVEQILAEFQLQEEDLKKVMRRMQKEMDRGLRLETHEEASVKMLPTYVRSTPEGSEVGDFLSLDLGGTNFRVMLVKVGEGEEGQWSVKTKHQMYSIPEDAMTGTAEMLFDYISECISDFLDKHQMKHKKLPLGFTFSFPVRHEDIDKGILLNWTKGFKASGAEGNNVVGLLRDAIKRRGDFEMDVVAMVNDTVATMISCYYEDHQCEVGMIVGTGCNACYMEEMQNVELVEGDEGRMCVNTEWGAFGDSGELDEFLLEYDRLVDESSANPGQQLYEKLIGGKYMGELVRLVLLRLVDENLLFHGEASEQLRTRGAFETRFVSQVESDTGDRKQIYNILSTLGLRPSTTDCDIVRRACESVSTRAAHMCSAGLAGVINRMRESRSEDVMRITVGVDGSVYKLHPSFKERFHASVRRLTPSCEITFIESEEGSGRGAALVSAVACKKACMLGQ
Put plainly: Glucokinase in vitro assay (G6PDH-coupled NADH generation, OD340). Format: biochemical. As to conditions: 30 uM test compound, 5 mM D-glucose. The method, then:
Glucokinase In Vitro Assay Protocol: Glucokinase (GK) was assayed by coupling the production of glucose-6-phosphate to the generation of NADH with glucose-6-phosphate dehydrogenase (G6PDH, 0.75-1 k units/mg; Boehringer Mannheim, Indianapolis, Ind.) from Leuconostoc mesenteroides as the coupling enzyme (Scheme 2):
Recombinant human liver GK1 was expressed in E. coli as a glutathione S-transferase fusion protein (GST-GK) [Liang et al, 1995] and was purified by chromatography over a glutathione-Sepharose 4B affinity column using the procedure provided by the manufacturer (Amersham Pharmacia Biotech, Piscataway, N.J.).
The assay was conducted at 30° C. in a flat bottom 96-well tissue culture plate from Costar (Cambridge, Mass.) with a final incubation volume of 120 μL. The incubation reaction contained the following: 25 mM Hepes buffer (pH 7.1), 25 mM KCl, 5 mM D-glucose, 1 mM ATP, 1.8 mM NAD, 2 mM MgCl2, 1 μM sorbitol-6-phosphate, 1 mM dithiothreitol, test drug or 10% DMSO, ˜7 units/ml G6PDH, and GK (see below). All organic reagents were >98% pure and were from Boehringer Mannheim with the exceptions of D-glucose and Hepes which were from Sigma Chemical Co, St Louis, Mo. Test compounds were dissolved in DMSO and were added to the incubation reaction minus GST-GK in a volume of 12 μL to yield a final DMSO concentration of 10%. This mix was pre-incubated in the temperature controlled chamber of a SPECTRAmax 250 microplate spectrophotometer (Molecular Devices Corporation, Sunnyvale, Calif.) for 10 minutes to allow temperature equilibrium and then the reaction was started by the addition of 20 μL GST-GK.
After addition of enzyme, the increase in optical density (OD) at 340 nm was monitored spectrophotometrically to determine the rate of change (OD340 per min). The GK activity (OD340/min) in control wells (10% DMSO minus GK activators) was compared with the activity in wells containing test GK activators, and the concentration of activator that produced a 50% increase in the activity of GK, i.e., the SC1.5, was calculated. The table below provides the in vitro glucokinase activity for the compounds in the Examples: […]
For the molecule `CC(=O)OC(C)Cn1nc(NC(=O)C(CC2CCOCC2)n2ncc(Oc3c(F)cccc3F)cc2=O)cc1C` (stereo not drawn) [Example 131, Acetic acid 2-{3-[2-[4-(2,6-difluoro-phenoxy)-6-oxo-6H-pyridazin-1-yl]-3-(tetrahydro-pyran-4-yl)-propionylamino]-5-methyl-pyrazol-1-yl}-1-methyl-ethyl ester], the “fold activation @ 30 uM” value stood at 1.18 fold.

The same experiment, now with this note: 5 mM D-glucose, 30° C., pH 7.1, 10% DMSO.
In the case of `COC(=O)c1ccc(NC(=O)C(CC2CCCC2)n2ncc(Oc3ccccc3C3CCCC3)cc2=O)nc1` (stereo not drawn) [Example 66, 6-{3-Cyclopentyl-2-[4-(2-cyclopentyl-phenoxy)-6-oxo-6H-pyridazin-1-yl]-propionylamino}-nicotinic acid methyl ester], the “SC1.5 average (concentration of activator that produced a 50% increase in the activity of GK)” value stood at 1.74 µM.
Take `Cc1nnc(NC(=O)C(CC2CCCC2)n2ncc(Oc3ccccc3)cc2=O)s1` (stereo not drawn) [Example 4, 3-Cyclopentyl-N-(5-methyl-[1,3,4]thiadiazol-2-yl)-2-(6-oxo-4-phenoxy-6H-pyridazin-1-yl)-propionamide]: the “SC1.5 average (concentration of activator that produced a 50% increase in the activity of GK)” value came out at 6.205 µM.
Still for that read-out and setting: to `COC(=O)c1ccc(NC(=O)C(CC2CCCC2)n2ncc(Oc3ccccc3F)cc2=O)nc1` (stereo not drawn) [Example 70, 6-{3-Cyclopentyl-2-[4-(2-fluoro-phenoxy)-6-oxo-6H-pyridazin-1-yl]-propionylamino}-nicotinic acid methyl ester] belongs 0.036 µM; to `CC(C)CC(C(=O)Nc1ccn(C[C@@H](O)CO)n1)n1ncc(Oc2c(F)cccc2F)cc1=O` (stereo partly drawn) [Example 61, 2-[4-(2,6-Difluoro-phenoxy)-6-oxo-6H-pyridazin-1-yl]-4-methyl-pentanoic acid [1-((R)-2,3-dihydroxy-propyl)-1H-pyrazol-3-yl]-amide], 0.383 µM.
Turning to `CC(C)(O)Cn1ccc(NC(=O)[C@@H](CC2CCCC2)n2ncc(Oc3cc(F)ccc3F)cc2=O)n1` [Example 33B, (R)-3-Cyclopentyl-2-[4-(2,5-difluoro-phenoxy)-6-oxo-6H-pyridazin-1-yl]-N-[1-(2-hydroxy-2-methyl-propyl)-1H-pyrazol-3-yl]-propionamide], the “SC1.5 average (concentration of activator that produced a 50% increase in the activity of GK)” value was 8.849 µM.
Take `CC(C)CC(C(=O)Nc1ccn(C[C@@H](O)CO)n1)n1ncc(-n2ccc3c(O)cccc32)cc1=O` (stereo partly drawn) [Example 112, 2-[4-(4-Hydroxy-indol-1-yl)-6-oxo-6H-pyridazin-1-yl]-4-methyl-pentanoic acid [1-((R)-2,3-dihydroxy-propyl)-1H-pyrazol-3-yl]-amide]: the “SC1.5 average (concentration of activator that produced a 50% increase in the activity of GK)” value was found to be 2.606 µM.
The same measure, in the same setting: to `CC(=O)OC(C)Cn1nc(NC(=O)C(CC2CCOCC2)n2ncc(Oc3c(F)cccc3F)cc2=O)cc1C` (stereo not drawn) [Example 131, Acetic acid 2-{3-[2-[4-(2,6-difluoro-phenoxy)-6-oxo-6H-pyridazin-1-yl]-3-(tetrahydro-pyran-4-yl)-propionylamino]-5-methyl-pyrazol-1-yl}-1-methyl-ethyl ester] belongs more than 30 µM.
As to `Cc1occc(=O)c1Oc1cnn(C(CC2CCCC2)C(=O)Nc2ccn(C[C@@H](O)CO)n2)c(=O)c1` (stereo partly drawn) [Example 97, 3-Cyclopentyl-N-[1-((R)-2,3-dihydroxy-propyl)-1H-pyrazol-3-yl]-2-[4-(2-methyl-4-oxo-4H-pyran-3-yloxy)-6-oxo-6H-pyridazin-1-yl]-propionamide], the “SC1.5 average (concentration of activator that produced a 50% increase in the activity of GK)” value was 1.895 µM.
As for `CC(C)(O)Cn1ccc(NC(=O)C(Cc2ccccc2)n2ncc(Oc3c(F)cccc3F)cc2=O)n1` (stereo not drawn) [Example 44, 2-[4-(2,6-Difluoro-phenoxy)-6-oxo-6H-pyridazin-1-yl]-N-[1-(2-hydroxy-2-methyl-propyl)-1H-pyrazol-3-yl]-3-phenyl-propionamide], the “SC1.5 average (concentration of activator that produced a 50% increase in the activity of GK)” value turned out to be 1.032 µM.
`O=C(Nc1ccn(CCO)n1)C(Cc1ccccc1)n1ncc(Oc2c(F)cccc2F)cc1=O` (stereo not drawn) [Example 58, 2-[4-(2,6-Difluoro-phenoxy)-6-oxo-6H-pyridazin-1-yl]-N-[1-(2-hydroxy-ethyl)-1H-pyrazol-3-yl]-3-phenyl-propionamide]: the “SC1.5 average (concentration of activator that produced a 50% increase in the activity of GK)” value came to 2.719 µM.
Take `CC(C)(O)Cn1ccc(NC(=O)[C@H](CC2CCCC2)n2ncc(Oc3ccccc3F)cc2=O)n1` [Example 19A, (S)-3-Cyclopentyl-2-[4-(2-fluoro-phenoxy)-6-oxo-6H-pyridazin-1-yl]-N-[1-(2-hydroxy-2-methyl-propyl)-1H-pyrazol-3-yl]-propionamide]: the “SC1.5 average (concentration of activator that produced a 50% increase in the activity of GK)” value was determined as 0.104 µM.
For `O=C(Nc1ccn(C[C@H](O)CO)n1)[C@H](CC1CCCC1)n1ncc(Oc2c(F)cccc2F)cc1=O` [Example 65A, (S)-3-Cyclopentyl-2-[4-(2,6-difluoro-phenoxy)-6-oxo-6H-pyridazin-1-yl]-N-[1-((S)-2,3-dihydroxy-propyl)-1H-pyrazol-3-yl]-propionamide], the “SC1.5 average (concentration of activator that produced a 50% increase in the activity of GK)” value came to 0.049 µM.
Still for that read-out and setting: for `CC(C)(O)Cn1ccc(NC(=O)[C@H](CC2CCCC2)n2ncc(Oc3cccc4c3CCCC4)cc2=O)n1` [Example 17A, (S)-3-Cyclopentyl-N-[1-(2-hydroxy-2-methyl-propyl)-1H-pyrazol-3-yl]-2-[6-oxo-4-(5,6,7,8-tetrahydro-naphthalen-1-yloxy)-6H-pyridazin-1-yl]-propionamide] the value was 0.051 µM; for `CC(C)C[C@H](C(=O)Nc1ccn(CC(C)(C)O)n1)n1ncc(Oc2c(F)cccc2F)cc1=O` [Example 42B, (R)-2-[4-(2,6-Difluoro-phenoxy)-6-oxo-6H-pyridazin-1-yl]-4-methyl-pentanoic acid [1-(2-hydroxy-2-methyl-propyl)-1H-pyrazol-3-yl]-amide], 5.981 µM.
As to `CC(C)(O)Cn1ccc(NC(=O)C(CC2CCCC2)n2ncccc2=O)n1` (stereo not drawn) [Example 78, 3-Cyclopentyl-N-[1-(2-hydroxy-2-methyl-propyl)-1H-pyrazol-3-yl]-2-(6-oxo-6H-pyridazin-1-yl)-propionamide], the “SC1.5 average (concentration of activator that produced a 50% increase in the activity of GK)” value came out at 14.436 µM.
Turning to `CC(C)(O)Cn1ccc(NC(=O)C(CC2CCCC2)n2ncc(Oc3ccccc3)cc2=O)n1` (stereo not drawn) [Example 1, 3-Cyclopentyl-N-[1-(2-hydroxy-2-methyl-propyl)-1H-pyrazol-3-yl]-2-(6-oxo-4-phenoxy-6H-pyridazin-1-yl)-propionamide], the “SC1.5 average (concentration of activator that produced a 50% increase in the activity of GK)” value worked out at 0.707 µM.
Take `COC(=O)c1ccc(NC(=O)[C@H](CC2CCCC2)n2ncc(Oc3c(F)cccc3F)cc2=O)nc1` [Example 68A, 6-{(S)-3-Cyclopentyl-2-[4-(2,6-difluoro-phenoxy)-6-oxo-6H-pyridazin-1-yl]-propionylamino}-nicotinic acid methyl ester]: the “SC1.5 average (concentration of activator that produced a 50% increase in the activity of GK)” value was found to be 0.008 µM.
As for `CC(C)(O)Cn1ccc(NC(=O)C(CC2CCCC2)n2ncc(OCC3CCCC3)c(Cl)c2=O)n1` (stereo not drawn) [Example 10, 2-(5-Chloro-4-cyclopentylmethoxy-6-oxo-6H-pyridazin-1-yl)-3-cyclopentyl-N-[1-(2-hydroxy-2-methyl-propyl)-1H-pyrazol-3-yl]-propionamide], the “SC1.5 average (concentration of activator that produced a 50% increase in the activity of GK)” value is 11.438 µM.
The same measure, in the same setting: for `O=C(Nc1ccn(C[C@@H](O)CO)n1)C(CC1CCCC1)n1ncc(Oc2ccccc2OC(F)(F)F)cc1=O` (stereo partly drawn) [Example 98, 3-Cyclopentyl-N-[1-((R)-2,3-dihydroxy-propyl)-1H-pyrazol-3-yl]-2-[6-oxo-4-(2-trifluoromethoxy-phenoxy)-6H-pyridazin-1-yl]-propionamide] the value was 0.244 µM; for `CC(C)(O)Cn1ccc(NC(=O)C(CC2CCCCC2)n2ncc(Oc3cccc4c3OCCO4)cc2=O)n1` (stereo not drawn) [Example 133, 3-Cyclohexyl-2-[4-(2,3-dihydro-benzo[1,4]dioxin-5-yloxy)-6-oxo-6H-pyridazin-1-yl]-N-[1-(2-hydroxy-2-methyl-propyl)-1H-pyrazol-3-yl]-propionamide], 0.135 µM.

The values are drawn from patent US8258134B2, “Pyridazinone glucokinase activators” (Hoffmann-La Roche Inc., priority 2008, dated 2012).
